From ChEMBL document CHEMBL1201862, “PubChem BioAssay data set” (2004) come the findings set out here.

Among the test systems are HCT-15; HCC 2998; SF-268; SF-539; MOLT-4; MCF7; SK-OV-3; T47D; OVCAR-8; NCI-H226; A498; CCRF-CEM; BT-549; HT-29; SK-MEL-2; K562; Malme-3M; ACHN; UO-31.
Common to all, as to assay: growth of human tumour cells (NCI), 48 h

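Compound exposure: 48 hours, 5 concentrations, 96-well plates. GI50 marks 50% less growth.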 The source made the active and inactive calls. Rule as the data show it: active = GI50 up to about 1.1 µM and inactive = higher. Where only a bound is given, the exact number is not on record here.

Take `CCc1nc(N)nc(N)c1-c1ccc2c(c1)nnn2CCc1ccccc1`: the GI50 is 3.09 µM in the assay with HCT-15; 13.9 µM (inactive) in the assay with HCC 2998; 10.3 µM (inactive) with SF-268; 21.3 µM (inactive) with SF-539; 8.91 µM (inactive) in the assay with MOLT-4; 21.1 µM (inactive) with MCF7. The GI50 in the assay with SK-OV-3 is 45.4 µM (inactive); in the assay with T47D, 23.4 µM (inactive); in the assay on OVCAR-8, 4.95 µM (inactive); in the assay on NCI-H226 it was 38.6 µM (inactive); in the assay with A498, 24.1 µM (inactive); with CCRF-CEM, 7.23 µM (inactive). Also, the GI50 in the assay with BT-549 was 22.9 µM (inactive); in the assay on HT-29, 3.53 µM (inactive); in the assay on SK-MEL-2 it was 28.2 µM (inactive); in the assay on K562, 1.55 µM (inactive); in the assay on Malme-3M it was 19.5 µM (inactive); in the assay on ACHN, 7.23 µM (inactive). Further, the GI50 in the assay on UO-31 is 16.3 µM (inactive).
`O=c1ccs[nH]1`: the GI50 in the assay with HCT-15 is 11.6 µM; in the assay with HCC 2998, 3.97 µM (inactive); in the assay with SF-268 it was 14.2 µM (inactive); in the assay with SF-539, 5.92 µM (inactive); with MOLT-4 it was 4.53 µM (inactive); in the assay with MCF7 it was 8.36 µM (inactive). Moreover, the GI50 in the assay on SK-OV-3 is 26.3 µM (inactive); with T47D, 3.81 µM (inactive); in the assay with OVCAR-8 it was 12.7 µM (inactive); in the assay with NCI-H226, 51.1 µM (inactive); in the assay with A498, 46.8 µM (inactive); in the assay on CCRF-CEM, 1.56 µM (inactive). The GI50 with BT-549 was 16.8 µM (inactive); in the assay on HT-29, 11.2 µM (inactive); with SK-MEL-2, 28.3 µM (inactive); with K562, 7.82 µM (inactive); in the assay with Malme-3M, 8.91 µM (inactive); with ACHN it was 7.05 µM (inactive). In addition, the GI50 with UO-31 was 7.21 µM (inactive).
As to `Nc1nc(-c2cccnc2)cc(-c2cc(-c3cccnc3)nc(N)n2)n1`, the GI50 in the assay on HCT-15 is over 100 µM; in the assay with HCC 2998 it was > 100 µM (inactive); in the assay with SF-268, > 100 µM (inactive); with SF-539, > 100 µM (inactive); with MOLT-4, > 100 µM (inactive); in the assay with MCF7, > 100 µM (inactive). Further, the GI50 with SK-OV-3 is > 100 µM (inactive); in the assay with T47D it was > 100 µM (inactive); in the assay with OVCAR-8, > 100 µM (inactive); with NCI-H226, > 100 µM (inactive); in the assay with A498, > 100 µM (inactive); with CCRF-CEM, 75.2 µM (inactive). The GI50 with BT-549, in the assay on HT-29, with SK-MEL-2, in the assay with K562, in the assay on Malme-3M and in the assay on ACHN was > 100 µM (inactive) throughout. Besides, the GI50 with UO-31 was > 100 µM (inactive).
As for `C/C(=C\CBr)CCC(Br)C(C)(C)Br` (centres undefined), the GI50 with HCT-15 was over 100 µM; with HCC 2998, > 100 µM (inactive); with SF-268 it was > 100 µM (inactive); in the assay with SF-539 it was > 100 µM (inactive); in the assay on MOLT-4, > 100 µM (inactive); in the assay with MCF7, > 100 µM (inactive). In addition, the GI50 in the assay on SK-OV-3, with T47D, with OVCAR-8, with NCI-H226, in the assay on A498 and with CCRF-CEM was > 100 µM (inactive) in each case. Also, the GI50 in the assay on BT-549, in the assay with HT-29, with SK-MEL-2, in the assay on K562, in the assay on Malme-3M and in the assay with ACHN was > 100 µM (inactive) throughout. Moreover, in the assay with UO-31, the GI50 is > 100 µM (inactive).
For `O=[N+]([O-])c1oc2ccc3ccccc3c2c1CCO`, the GI50 in the assay with HCT-15 is 3.56 µM; in the assay on HCC 2998 it was 0.435 µM (active); in the assay on SF-268, 5.47 µM (inactive); with SF-539, 3.28 µM (inactive); with MOLT-4, 1.04 µM (active); in the assay on MCF7, 3.22 µM (inactive). Also, the GI50 in the assay with SK-OV-3 was 1.05 µM (active); in the assay on T47D, 13.2 µM (inactive); in the assay on OVCAR-8, 3.44 µM (inactive); in the assay with NCI-H226 it was 8.75 µM (inactive); in the assay on A498 it was 0.166 µM (active); with CCRF-CEM, 3.86 µM (inactive). Besides, the GI50 is 2.29 µM (inactive) in the assay with BT-549; 2.94 µM (inactive) in the assay with HT-29; 1.85 µM (inactive) in the assay on SK-MEL-2; 1.96 µM (inactive) with K562; 1.78 µM (inactive) in the assay on Malme-3M; 1.58 µM (inactive) in the assay on ACHN. Also, in the assay on UO-31, the GI50 is 1.64 µM (inactive).
For `O=C(NNC(=O)c1ccccc1S)c1ccccc1S` [BIS(THIOSALICYL)HYDRAZIDE], the GI50 with HCT-15 was 6.03 µM; in the assay on HCC 2998 it was 5.96 µM (inactive); in the assay with SF-268, 11.2 µM (inactive); with SF-539, 11.7 µM (inactive); in the assay with MOLT-4, 7.11 µM (inactive); with MCF7, 10 µM (inactive). The GI50 with SK-OV-3 was > 25 µM (inactive); in the assay with T47D, 10.8 µM (inactive); in the assay with OVCAR-8 it was 12 µM (inactive); in the assay with NCI-H226, 15.5 µM (inactive); in the assay with A498, > 100 µM (inactive); with CCRF-CEM it was 1.24 µM (inactive). Besides, the GI50 in the assay on BT-549 is 9.38 µM (inactive); in the assay with HT-29, 8.47 µM (inactive); with SK-MEL-2, 43.9 µM (inactive); with K562 it was 14.6 µM (inactive); in the assay with Malme-3M, 23.7 µM (inactive); with ACHN it was 10.8 µM (inactive). In addition, the GI50 in the assay on UO-31 was 8.43 µM (inactive).
In the case of `Nc1cc(C2CCCc3c2[nH]c2ccccc32)ccc1O` (centres undefined), the GI50 is 55.3 µM with HCT-15; 64.7 µM (inactive) in the assay with HCC 2998; 45.9 µM (inactive) in the assay with SF-268; > 100 µM (inactive) in the assay on SF-539; 4.79 µM (inactive) in the assay with MOLT-4; 24.8 µM (inactive) in the assay on MCF7. The GI50 was > 100 µM (inactive) with SK-OV-3; 14.3 µM (inactive) in the assay with T47D; 24.3 µM (inactive) with OVCAR-8; 55.3 µM (inactive) with NCI-H226; > 100 µM (inactive) in the assay with A498; 0.76 µM (active) with CCRF-CEM. The GI50 with BT-549 is 35.2 µM (inactive); in the assay on HT-29 it was 23.4 µM (inactive); with SK-MEL-2, 31.9 µM (inactive); in the assay on K562 it was 6.56 µM (inactive); in the assay on Malme-3M, 33 µM (inactive); in the assay on ACHN, 18.5 µM (inactive). For the same compound, in the assay on UO-31, the GI50 is 10.5 µM (inactive).
`CCOC(=O)C1C2C1C1C(C(=O)OCC)C21` (centres undefined): the GI50 was over 100 µM in the assay with HCT-15; > 100 µM (inactive) with HCC 2998; > 100 µM (inactive) in the assay with SF-268; > 100 µM (inactive) in the assay with SF-539; > 100 µM (inactive) in the assay on MOLT-4; 51.3 µM (inactive) in the assay with MCF7. Also, the GI50 with SK-OV-3 is > 100 µM (inactive); with T47D, 49.2 µM (inactive); with OVCAR-8, > 100 µM (inactive); in the assay on NCI-H226, > 100 µM (inactive); in the assay with A498 it was > 100 µM (inactive); in the assay on CCRF-CEM, > 100 µM (inactive). In addition, the GI50 in the assay on BT-549 is > 100 µM (inactive); in the assay on HT-29, 57.5 µM (inactive); with SK-MEL-2, > 100 µM (inactive); in the assay with K562, > 100 µM (inactive); in the assay with Malme-3M, > 100 µM (inactive); with ACHN, > 100 µM (inactive). The GI50 with UO-31 is > 100 µM (inactive).
Take `COc1ccc(C(NS(=O)(=O)c2ccc(C)cc2)c2c(C(CBr)OC)c3ccccc3n2S(=O)(=O)c2ccccc2)cc1OC` (centres undefined): the GI50 in the assay with HCT-15 was over 100 µM; in the assay with HCC 2998, > 100 µM (inactive); in the assay with SF-268 it was > 100 µM (inactive); in the assay with SF-539, > 100 µM (inactive); with MOLT-4 it was > 100 µM (inactive); with MCF7 it was > 100 µM (inactive). In addition, the GI50 in the assay with SK-OV-3 is > 100 µM (inactive); in the assay with T47D it was > 100 µM (inactive); with OVCAR-8, > 100 µM (inactive); with NCI-H226, > 100 µM (inactive); in the assay on A498 it was > 100 µM (inactive); with CCRF-CEM, 89.7 µM (inactive). For the same compound, the GI50 in the assay with BT-549, in the assay with HT-29, in the assay with SK-MEL-2, in the assay on K562, in the assay with Malme-3M and with ACHN was > 100 µM (inactive) throughout. Further, the GI50 in the assay with UO-31 was > 100 µM (inactive).
Regarding `COC(=O)C(I(OS(=O)(=O)c1ccc(C)cc1)c1ccccc1)=P(c1ccccc1)(c1ccccc1)c1ccccc1`, the GI50 in the assay with HCT-15 was 35.3 µM; in the assay on HCC 2998, 19.2 µM (inactive); in the assay with SF-268, 17.5 µM (inactive); with SF-539 it was 19.4 µM (inactive); with MOLT-4, 20.7 µM (inactive); with MCF7, 30.3 µM (inactive). Moreover, the GI50 in the assay with SK-OV-3 is 25.1 µM (inactive); with T47D it was 15.9 µM (inactive); in the assay with OVCAR-8, 21.2 µM (inactive); with NCI-H226 it was 8.39 µM (inactive); in the assay with A498 it was 18.2 µM (inactive); in the assay with CCRF-CEM it was 10.3 µM (inactive). Also, the GI50 in the assay with BT-549 is 21.2 µM (inactive); with HT-29, 20.6 µM (inactive); in the assay with SK-MEL-2, 18.2 µM (inactive); in the assay on K562 it was 12.7 µM (inactive); with Malme-3M, 7.94 µM (inactive); in the assay with ACHN, 16.6 µM (inactive). The GI50 with UO-31 is 22.2 µM (inactive).
For the compound `C[C@@H]1CCC2[C@@H](C)[C@@H](OCCO[C@H]3OC4O[C@@]5(C)CCC6[C@H](C)CCC([C@H]3C)[C@@]46OO5)OC3O[C@@]4(C)CCC1[C@]32OO4` (some centres undefined), the GI50 in the assay with HCT-15 was 0.0238 µM; in the assay with HCC 2998, 6.92 µM (inactive); in the assay with SF-268 it was 0.233 µM (active); with SF-539, 0.202 µM (active); in the assay on MOLT-4, 0.0483 µM (active); in the assay with MCF7 it was 0.0312 µM (active). Also, the GI50 in the assay on SK-OV-3 was 0.577 µM (active); in the assay with T47D, 0.0263 µM (active); in the assay with OVCAR-8, 0.0982 µM (active); with NCI-H226, 0.289 µM (active); in the assay on A498 it was 1.92 µM (inactive); in the assay with CCRF-CEM, 0.0682 µM (active). For the same compound, the GI50 was 0.883 µM (active) with BT-549; 0.05 µM (active) in the assay with HT-29; 0.292 µM (active) in the assay on SK-MEL-2; 0.0212 µM (active) in the assay on K562; 0.182 µM (active) in the assay on Malme-3M; 0.154 µM (active) in the assay on ACHN. Also, in the assay with UO-31, the GI50 was 0.201 µM (active).
